Data from patent US20170233491A1 (Merrimack Pharmaceuticals, Inc., priority 2016, published 2017).
Counter-ions that a name gives are not always drawn.

Columns and labels:
[1] = test system: HRG mRNA expression in CFPAC-1 cells; experiment: HRG mRNA expression in CFPAC-1 cells after chemotherapy treatment; format: cell-based; conditions: FIG. 3
Experimental: HRG mRNA expression was quantified after 24 h treatment with 1 mM of gemcitabine or 0.1 mM of paclitaxel, and normalized to housekeeping gene expression. “Vehicle”=drug-free vehicle control; “Gem”=gemcitabine treated; “Pac”=paclitaxel treated.

[2] = Phase 1 study; cited from earlier work
pancreatic cancer models = experiment: IGF-1- and HRG-mediated insensitivity to gemcitabine or paclitaxel; format: cell-based; conditions: preclinical research
[3] = test system: IGF-1R and ErbB3 signaling; conditions: background description; cited from earlier work
[4] = test system: preclinical models of pancreatic cancer; experiment: preclinical models of pancreatic cancer, combination with nab-paclitaxel and gemcitabine; format: in vivo; conditions: KRAS mutant pancreatic cancer models
[5] = target: receptor complexes containing IGF-1R and ErbB3 (Homo sapiens, UniProt P08069+P21860); conditions: including heterodimers with insulin receptor and with ErbB2; cited from earlier work
[6] = test system: preclinical models of pancreatic cancer; conditions: combined with nab-paclitaxel and gemcitabine; cited from earlier work
[7] = test system: IGF-1R and ErbB3 signaling; experiment: growth factor-induced (IGF-1, heregulin) signaling in pancreatic cancer models; format: cell-based; conditions: preclinical research

Sequence of receptor complexes containing IGF-1R and ErbB3 (P08069 31-736 limits assumed): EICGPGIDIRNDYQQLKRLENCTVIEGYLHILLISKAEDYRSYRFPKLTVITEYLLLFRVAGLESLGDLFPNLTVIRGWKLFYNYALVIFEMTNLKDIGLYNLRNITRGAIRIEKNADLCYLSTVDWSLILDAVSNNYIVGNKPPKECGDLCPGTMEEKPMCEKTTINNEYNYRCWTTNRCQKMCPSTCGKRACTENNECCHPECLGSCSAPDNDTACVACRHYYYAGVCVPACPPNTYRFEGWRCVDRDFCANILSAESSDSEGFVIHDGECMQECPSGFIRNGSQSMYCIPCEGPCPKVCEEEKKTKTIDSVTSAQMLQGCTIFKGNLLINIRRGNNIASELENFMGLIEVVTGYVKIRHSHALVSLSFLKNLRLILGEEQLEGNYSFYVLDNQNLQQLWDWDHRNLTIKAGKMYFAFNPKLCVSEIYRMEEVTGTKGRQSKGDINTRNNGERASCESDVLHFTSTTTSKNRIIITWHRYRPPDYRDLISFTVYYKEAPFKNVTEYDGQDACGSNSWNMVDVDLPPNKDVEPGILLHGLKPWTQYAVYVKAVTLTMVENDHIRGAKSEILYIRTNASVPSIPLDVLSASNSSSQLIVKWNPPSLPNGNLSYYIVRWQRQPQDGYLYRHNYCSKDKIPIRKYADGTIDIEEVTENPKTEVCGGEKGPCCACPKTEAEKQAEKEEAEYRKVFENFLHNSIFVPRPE
Sequence of receptor complexes containing IGF-1R and ErbB3 (P08069 741-1367 limits assumed): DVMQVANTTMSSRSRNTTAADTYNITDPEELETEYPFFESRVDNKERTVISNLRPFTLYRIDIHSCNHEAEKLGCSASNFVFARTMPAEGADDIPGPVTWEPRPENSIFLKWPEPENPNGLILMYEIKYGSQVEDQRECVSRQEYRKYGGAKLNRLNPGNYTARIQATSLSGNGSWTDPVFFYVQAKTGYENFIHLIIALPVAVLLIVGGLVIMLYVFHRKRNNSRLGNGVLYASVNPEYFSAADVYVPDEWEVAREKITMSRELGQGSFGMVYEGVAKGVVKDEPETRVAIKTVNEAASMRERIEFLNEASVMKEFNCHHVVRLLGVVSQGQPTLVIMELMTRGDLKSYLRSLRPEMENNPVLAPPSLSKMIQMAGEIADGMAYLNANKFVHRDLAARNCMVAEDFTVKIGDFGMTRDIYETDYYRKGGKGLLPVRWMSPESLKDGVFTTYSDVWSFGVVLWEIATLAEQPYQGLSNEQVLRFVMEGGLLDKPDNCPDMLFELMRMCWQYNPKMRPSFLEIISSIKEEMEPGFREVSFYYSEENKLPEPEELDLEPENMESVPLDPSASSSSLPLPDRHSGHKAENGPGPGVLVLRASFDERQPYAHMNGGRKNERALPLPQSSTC
Sequence of receptor complexes containing IGF-1R and ErbB3 (P21860 20-1342): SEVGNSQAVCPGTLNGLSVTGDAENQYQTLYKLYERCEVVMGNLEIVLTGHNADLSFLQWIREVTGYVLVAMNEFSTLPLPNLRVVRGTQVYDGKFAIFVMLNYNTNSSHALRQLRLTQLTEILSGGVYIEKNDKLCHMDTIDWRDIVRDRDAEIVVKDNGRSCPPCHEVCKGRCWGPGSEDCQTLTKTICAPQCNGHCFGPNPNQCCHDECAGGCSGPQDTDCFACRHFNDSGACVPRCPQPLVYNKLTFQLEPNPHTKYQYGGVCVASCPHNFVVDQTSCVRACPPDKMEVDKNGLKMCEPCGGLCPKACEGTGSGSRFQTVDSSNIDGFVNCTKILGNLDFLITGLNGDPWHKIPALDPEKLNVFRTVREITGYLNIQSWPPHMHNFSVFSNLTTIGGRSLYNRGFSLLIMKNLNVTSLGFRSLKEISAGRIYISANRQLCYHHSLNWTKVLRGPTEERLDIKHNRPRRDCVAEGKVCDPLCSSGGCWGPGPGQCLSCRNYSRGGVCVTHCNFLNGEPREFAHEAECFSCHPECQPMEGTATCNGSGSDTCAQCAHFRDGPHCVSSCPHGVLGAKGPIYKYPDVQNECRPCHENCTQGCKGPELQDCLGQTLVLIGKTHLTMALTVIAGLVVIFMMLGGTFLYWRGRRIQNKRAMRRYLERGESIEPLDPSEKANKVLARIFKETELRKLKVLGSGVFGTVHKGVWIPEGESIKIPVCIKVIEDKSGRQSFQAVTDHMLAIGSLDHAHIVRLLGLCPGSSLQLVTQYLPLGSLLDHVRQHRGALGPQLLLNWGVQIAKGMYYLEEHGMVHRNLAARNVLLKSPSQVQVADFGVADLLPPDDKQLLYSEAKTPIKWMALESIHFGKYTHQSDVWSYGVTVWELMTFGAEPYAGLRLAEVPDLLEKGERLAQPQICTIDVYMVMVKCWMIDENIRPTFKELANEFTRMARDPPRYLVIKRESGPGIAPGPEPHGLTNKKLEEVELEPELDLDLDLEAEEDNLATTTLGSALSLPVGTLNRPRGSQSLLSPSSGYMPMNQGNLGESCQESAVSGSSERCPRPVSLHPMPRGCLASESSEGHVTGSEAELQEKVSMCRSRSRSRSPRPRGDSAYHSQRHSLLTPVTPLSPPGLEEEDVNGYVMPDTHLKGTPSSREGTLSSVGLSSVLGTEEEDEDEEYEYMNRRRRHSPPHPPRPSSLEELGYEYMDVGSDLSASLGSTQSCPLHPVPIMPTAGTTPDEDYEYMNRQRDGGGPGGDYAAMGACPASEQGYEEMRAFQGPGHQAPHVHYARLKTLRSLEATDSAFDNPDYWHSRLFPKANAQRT

## Nc1ccn([C@@H]2O[C@H](CO)[C@@H](O)C2(F)F)c(=O)n1 [gemcitabine, 2′-deoxy-2′,2′-difluorocytidine monohydrochloride (-isomer)]
[1]; 24 h treatment with 1 mM of gemcitabine
  HRG mRNA expression, normalized to housekeeping gene expression: increases HRG mRNA expression

## CC(=O)O[C@H]1C(=O)[C@@]2(C)[C@H]([C@H](OC(=O)c3ccccc3)[C@]3(O)C[C@H](OC(=O)[C@H](O)[C@@H](NC(=O)c4ccccc4)c4ccccc4)C(C)=C1C3(C)C)[C@]1(OC(C)=O)CO[C@@H]1C[C@@H]2O [paclitaxel]
[1]; 24 h treatment with 0.1 mM of paclitaxel
  HRG mRNA expression, normalized to housekeeping gene expression: increases HRG mRNA expression

## Istiratumab: recombinant fully human bispecific tetravalent antibody directed at IGF-1R and ErbB3; light chain SEQ ID NO: 1, heavy chain SEQ ID NO: 2
[2]
  safety and tolerability: safe and tolerable
Pancreatic cancer models
  reversal of IGF-1- and HRG-mediated insensitivity to gemcitabine or paclitaxel: reverses IGF-1- and HRG-mediated insensitivity to gemcitabine or paclitaxel
[3]
  IGF-1 and heregulin-induced signaling: co-blocks IGF-1 and heregulin-induced signaling
[4]
  potentiation of anti-tumor activity of nab-paclitaxel/gemcitabine: potentiates the anti-tumor activity of nab-paclitaxel/gemcitabine
[5]
  degradation of receptor complexes containing IGF-1R and ErbB3: induces degradation of receptor complexes containing IGF-1R and ErbB3
[6]
  tumor regression: significant tumor regression, including durable complete responses
[7]
  growth factor-induced survival signaling: inhibits growth factor-induced survival signaling
